Results from patent publication US6761885B1, “Strain of Lactobacillus plantarum and uses thereof” (SCA Hygiene Products AB, priority 1998, dated 2004).
Read-outs that look alike come from different tables or passages of the source.

What was measured:
[1] = tested on: Lactobacillus plantarum LB931; test: MIC of antibiotics by E-test; assay type: cell-based
Protocol: MIC values of Lactobacillus plantarum LB931 were determined using E-test (Brown et al. J Antimicrob Chemother 1991;27:185-190).

LB931 [2] = test: Sensitivity to antibiotic substances by the SIR system; assay type: cell-based, Lactobacillus plantarum; design: key to Indication: S means sensitive; R strands for resistant; settings: for Indication / Zone: SIR system
Protocol: The sensitivity to antibiotic substances was also determined using the SIR system. In table VI below S means sensitive and R strands for resistant.

LB931 [3] = test: MIC test for the spermacidal agent Tergitol NP-9; assay type: cell-based, Lactobacillus plantarum; settings: for Cfu/ml LB931: 18 h, 37 °C, inoculated 1.0×10^7 cfu
Protocol: MIC tests were also carried out for the spermacidal agent Tergitol. LB931 was grown on MRS agar in 5% CO2, 37° C. for 48 h. The bacteria were inoculated in 3 ml MRS broth and incubated for 10 h under the same conditions as previously 1.5% of the culture was reinoculated to 3 ml MRS broth and was incubated under the same conditions for 18 h. NP-9 Tergitol (Sigma, US) Lot 47F0002 was diluted in MRS broth having a temperature of 37° C. (reduced viscosity) to a stock solution of 40%. […] 10 μl bacterial culture was added to each solution. The blank solution was mixed and added to MRS agar plates. The plates were grown in 5% CO2, 37° C. for 48 h for determining the cell density. The rest of the solutions were incubated without mixing in 5% CO2, 37° C. for 18 h. The solution containing 30% and 40% NP-9 were diluted in 37 ° C. MRS broth (reduced viscosity). All solutions were vigorously mixed; diluted in sterile 0.9% NaCl and added to MRS agar plates The plates were incubated in 5% CO2, 37° C. for 48 h for determining cfu/ml.
Inoculated amount of LB931 was 1.0×10^7 .cfu

[4] = Lactiplantibacillus plantarum, LB931, E-test, read-out: MIC

| Compound | Indication (LB931 [2]) | Zone (LB931 [2]) | other results |
| --- | --- | --- | --- |
| Piperacin/Tazobactam | – | – | MIC ([1]; E-test): 2 mg/L |
| C[C@H]1[C@H](NC(=O)/C(=N\OC(C)(C)C(=O)O)c2csc(N)n2)C(=O)N1S(=O)(=O)O [Aztreonam] | R | 0 mm | – |
| Cc1ncc([N+](=O)[O-])n1CCO [Metronidazole] | – | – | MIC [1, 4]: > 32 mg/L |
| Cc1onc(-c2ccccc2)c1C(=O)N[C@@H]1C(=O)N2[C@@H]1SC(C)(C)[C@@H]2C(=O)O [Oxacillin] | R | 0 mm | – |
| CN(C)[C@@H]1C(=O)C(C(N)=O)=C(O)[C@@]2(O)C(=O)C3=C(O)c4c(O)cccc4[C@@](C)(O)[C@H]3C[C@@H]12 [Tetracyclin] | – | – | MIC ([1]; E-test): 2 mg/L |
| CC1(C)S[C@@H]2[C@H](NC(=O)[C@H](N)c3ccccc3)C(=O)N2[C@H]1C(=O)O [Ampicillin] | – | – | MIC [1, 4]: 0.19 mg/L |
| CO/N=C(\C(=O)N[C@@H]1C(=O)N2C(C(=O)O)=C(COC(C)=O)CS[C@H]12)c1csc(N)n1 [Cefotaxime] | – | – | MIC [1, 4]: 0.094 mg/L |
| CC[C@H]1OC(=O)[C@H](C)[C@@H](O[C@H]2C[C@@](C)(OC)[C@@H](O)[C@H](C)O2)[C@H](C)[C@@H](O[C@@H]2O[C@H](C)C[C@H](N(C)C)[C@H]2O)[C@](C)(O)C[C@@H](C)C(=O)[C@H](C)[C@@H](O)[C@]1(C)O [Erythromycin] | – | – | MIC [1, 4]: 0.25 mg/L |
| O=C1CN(/N=C/c2ccc([N+](=O)[O-])o2)C(=O)N1 [Nitrofuantin] | S | 36 mm | – |
| Tri/sulfamethoazole | S | 43 mm | – |
| COc1cc(Cc2cnc(N)nc2N)cc(OC)c1OC [Trimetoprim] | – | – | MIC ([1]; E-test): 0.016 mg/L |
| CO/N=C(\C(=O)N[C@@H]1C(=O)N2C(C(=O)[O-])=C(C[n+]3cccc4c3CCC4)CS[C@H]12)c1csc(N)n1 [Cefipirome] | S | 47 mm | – |
| NC[C@H]1O[C@H](O[C@H]2[C@H](O)[C@@H](O[C@H]3O[C@H](CO)[C@@H](O)[C@H](N)[C@H]3O)[C@H](N)C[C@@H]2N)[C@H](N)C[C@@H]1O [Tobramycin] | S | 32 mm | – |
| CC1=C(C(=O)O)N2C(=O)[C@@H](NC(=O)[C@H](N)c3ccc(O)cc3)[C@H]2SC1 [Cefadroxil] | S | 24 mm | – |
| CCn1cc(C(=O)O)c(=O)c2ccc(C)nc21 [Nalidixin acid] | R | 0 mm | Sensitivity of LB931 in words (LB931 [2]): resistant |
| CCn1cc(C(=O)O)c(=O)c2cc(F)c(N3CCNCC3)cc21 [Norfloxacin] | R | 0 mm | Sensitivity of LB931 in words (LB931 [2]): resistant |
| CO/N=C(\C(=O)N[C@@H]1C(=O)N2C(C(=O)O)=C(COC(N)=O)CS[C@H]12)c1ccco1 [Cefuroxime] | – | – | MIC [1, 4]: 0.38 mg/L |
| CC(C)(O/N=C(\C(=O)N[C@@H]1C(=O)N2C(C(=O)[O-])=C(C[n+]3ccccc3)CS[C@H]12)c1csc(N)n1)C(=O)O [Ceftazidime] | S | 35 mm | – |
| CC1(C)S[C@@H]2[C@H](/N=C/N3CCCCCC3)C(=O)N2[C@H]1C(=O)O [Mecillinam] | R | 0 mm | – |
| Tergitol NP-9 | – | – | Cfu/ml LB931 (LB931 [3]; 1% Tergitol NP-9 in MRS broth): 2.5 × 10^9 Cfu/ml; Cfu/ml LB931 (LB931 [3]; 5% Tergitol NP-9 in MRS broth): 2.5 × 10^9 Cfu/ml; Cfu/ml LB931 (LB931 [3]; 10% Tergitol NP-9 in MRS broth): 1.6 × 10^9 Cfu/ml; Cfu/ml LB931 (LB931 [3]; 20% Tergitol NP-9 in MRS broth): 1.4 × 10^9 Cfu/ml; Cfu/ml LB931 (LB931 [3]; 30% Tergitol NP-9 in MRS broth): 1.0 × 10^9 Cfu/ml; Cfu/ml LB931 (LB931 [3]; 40% Tergitol NP-9 in MRS broth): 6.9 × 10^7 Cfu/ml; Survival of LB931 in tergitol NP-9 in words (LB931 [3]; up to 40% tergitol NP-9): survive well |
| CCN[C@@H]1C[C@H](N)[C@@H](O[C@H]2OC(CN)=CC[C@H]2N)[C@H](O)[C@H]1O[C@H]1OC[C@](C)(O)[C@H](NC)[C@H]1O [Netilmycin] | R | 0 mm | – |
| CC(=O)OCC1=C(C(=O)O)N2C(=O)[C@@H](NC(=O)Cc3cccs3)[C@H]2SC1 [Cefalotin] | S | 22 mm | – |
| Gentamycin | – | – | MIC ([1]; E-test): 0.25 mg/L |
| C[C@@H](O)[C@H]1C(=O)N2C(C(=O)O)=C(SCCN=CN)C[C@H]12 [Imipenem] | – | – | MIC [1, 4]: 0.016 mg/L |
| CN[C@H](CC(C)C)C(=O)N[C@H]1C(=O)N[C@@H](CC(N)=O)C(=O)N[C@H]2C(=O)N[C@H]3C(=O)N[C@H](C(=O)N[C@H](C(=O)O)c4cc(O)cc(O)c4-c4cc3ccc4O)[C@H](O)c3ccc(c(Cl)c3)Oc3cc2cc(c3O[C@@H]2O[C@H](CO)[C@@H](O)[C@H](O)[C@H]2O[C@H]2C[C@](C)(N)[C@H](O)[C@H](C)O2)Oc2ccc(cc2Cl)[C@H]1O [Vancomycin] | – | – | Sensitivity of LB931 in words [1]: resistant; MIC ([1]; Lactiplantibacillus plantarum, LB931): > 256 mg/L |
| Mecillinam/Ampicillin | S | 41 mm | – |
| NCC[C@H](O)C(=O)N[C@@H]1C[C@H](N)[C@@H](O[C@H]2O[C@H](CN)[C@@H](O)[C@H](O)[C@H]2O)[C@H](O)[C@H]1O[C@H]1O[C@H](CO)[C@@H](O)[C@H](N)[C@H]1O [Amikacin] | S | 30 mm | – |
| CCC[C@@H]1C[C@@H](C(=O)N[C@@H]([C@H]2O[C@H](SC)[C@H](O)[C@@H](O)[C@H]2O)[C@H](C)Cl)N(C)C1 [Clindamycin] | S | 35 mm | – |
| CC1(C)S[C@@H]2[C@H](NC(=O)Cc3ccccc3)C(=O)N2[C@H]1C(=O)O [Benzylpenicillin] | – | – | MIC [1, 4]: 0.5 mg/L |
